Earlier results as cited in US20260102363A1, “TREATMENT METHOD AND ANTIFUNGAL COMPOSITION” (MOBERG PHARMA AB, priority 2020, published 2026).
Structures can show the parent of a compound that is named as a salt. Where two headings read alike, the source gives them in different places.

What was measured:
[1] = Study 1 of the prescribing information
[2] = Study 2 of the prescribing information
[3] = single reported study, hydrochloride

Row | SMILES | Complete Cure (%) (DSO; [1]) | Mycological Cure (%) (DSO; [1]) | Complete Cure (%) (DSO; [2]) | Mycological Cure (%) (DSO; [2]) | Complete Cure (%) (DSO; single reported study) | Mycological Cure (%) (DSO; single reported study) | further results
1 | Cc1cc(C2CCCCC2)n(O)c(=O)c1 [Ciclopirox (Penlac ®), ciclopirox] | 5.5% | 29% | 8.5% | 36% |  |  | 
2 | CN(C/C=C/C#CC(C)(C)C)Cc1cccc2ccccc12 [Terbinafine (oral) (LAMISIL ®), terbinafine hydrochloride] |  |  |  |  |  |  | Complete Cure (%) (DSO; [3]): 38%; Mycological Cure (%) (DSO; [3]): 70%; mycological cure rate (onychomycosis; after 12 weeks): ~15%; mycological cure rate (onychomycosis; at 24 weeks): ~40%; mycological cure rate (onychomycosis; at week 48/52): ~70%
3 | C=C1CCN([C@H](C)[C@](O)(Cn2cncn2)c2ccc(F)cc2F)CC1 [Efinaconazole (JUBLIA ®), efinaconazole] | 15.2% | 53.4% | 17.8% | 55.2% |  |  | 
4 | CN(C/C=C/C#CC(C)(C)C)Cc1cccc2ccccc12 [Terbinafine (P3058), Terbinafine] |  |  |  |  | 5.7% | 20.4% | 
5 | N#C/C(=C1/SC[C@@H](c2ccc(Cl)cc2Cl)S1)n1ccnc1 [Luliconazole] |  |  |  |  | 14.9% | 45.4% | 
6 | OB1OCc2cc(F)ccc21 [Tavaborole (KERYDIN ®), tavaborole] | 6.5% | 31% | 9.1% | 35.9% |  |  | 
